{
  "source": "patent US10221173B2",
  "about": "“Chemical compounds” (AstraZeneca AB, priority 2017, dated 2019)",
  "key": {"[1]": {"target": "Estrogen Receptor (ERα) in MCF-7 cells (Homo sapiens (Human), UniProt P03372)", "sequence (P03372 whole entry)": "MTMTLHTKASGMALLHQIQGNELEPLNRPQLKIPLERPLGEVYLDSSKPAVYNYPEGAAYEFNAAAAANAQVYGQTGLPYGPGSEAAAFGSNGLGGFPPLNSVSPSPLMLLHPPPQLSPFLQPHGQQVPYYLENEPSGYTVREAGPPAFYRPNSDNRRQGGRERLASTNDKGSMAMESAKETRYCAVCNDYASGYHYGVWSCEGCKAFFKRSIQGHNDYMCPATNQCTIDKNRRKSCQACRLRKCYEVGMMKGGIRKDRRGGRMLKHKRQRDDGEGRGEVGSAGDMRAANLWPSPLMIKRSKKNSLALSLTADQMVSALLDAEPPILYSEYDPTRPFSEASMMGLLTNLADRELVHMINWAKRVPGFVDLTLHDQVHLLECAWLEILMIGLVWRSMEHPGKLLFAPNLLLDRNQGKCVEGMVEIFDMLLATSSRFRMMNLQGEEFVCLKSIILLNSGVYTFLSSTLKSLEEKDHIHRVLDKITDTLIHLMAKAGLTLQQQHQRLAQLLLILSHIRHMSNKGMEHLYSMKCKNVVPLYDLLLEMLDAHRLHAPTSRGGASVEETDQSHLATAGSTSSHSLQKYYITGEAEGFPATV", "experiment": "MCF-7 ER down-regulation assay (immuno-fluorescence)", "type": "cell-based"}, "[2]": {"target": "recombinant human Estrogen Receptor alpha ligand binding domain (ER alpha-LBD (GST)) (Homo sapiens (Human), UniProt P03372)", "sequence (P03372 307-554)": "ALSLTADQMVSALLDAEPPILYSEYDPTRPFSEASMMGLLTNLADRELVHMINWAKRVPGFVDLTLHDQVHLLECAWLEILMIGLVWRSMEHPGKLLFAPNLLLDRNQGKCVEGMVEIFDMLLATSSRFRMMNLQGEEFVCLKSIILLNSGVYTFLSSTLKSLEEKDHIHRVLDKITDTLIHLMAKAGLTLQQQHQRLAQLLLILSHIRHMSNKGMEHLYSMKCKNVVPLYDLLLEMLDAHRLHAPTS", "experiment": "ERα binding assay (LanthaScreen TR-FRET competition)", "procedure": "The ability of compounds to bind to isolated Estrogen Receptor Alpha Ligand binding domain (ER alpha—LBD (GST)) was assessed in competition assays using a LanthaScreen Time-Resolved Fluorescence Resonance Energy Transfer (TR-FRET) detection end-point. For the LanthaScreen TR-FRET endpoint, a suitable fluorophore (Fluormone ES2, ThermoFisher, Product code P2645) and recombinant human Estrogen Receptor alpha ligand binding domain, residues 307-554 (expressed and purified in-house) were used to measure compound binding. The assay principle is that ER alpha-LBD (GST) is added to a fluorescent ligand to form a receptor/fluorophore complex. A terbium-labelled anti-GST antibody (Product code PV3551) is used to indirectly label the receptor by binding to its GST tag, and competitive binding is detected by a test compound's ability to displace the fluorescent ligand, resulting in a loss of TR-FRET signal between the Tb-anti-GST antibody and the tracer. The assay was performed as follows with all reagent additions carried out using the Beckman Coulter BioRAPTR FRD microfluidic workstation: • 1. Acoustic dispense 120 nL of the test compound into a black low volume 384 well assay plates. • 2. Prepare 1× ER alpha-LBD/Tb-antiGST Ab in ES2 screening buffer and incubate for 15 minutes. • 3. […] Cover the assay plate to protect the reagents from light and evaporation, and incubate at room temperature for 4 hours. • 5. Excite at 337 nm and measure the fluorescent emission signal of each well at 490 nm and 520 nm using the BMG PheraSTAR.\nTR-FRET dose response data obtained with each compound was exported into a suitable software package (such as Origin or Genedata) to perform curve fitting analysis. Competitive ER alpha binding was expressed as an IC50 value."}},
  "data": [
    {"smiles": "COc1ccc(OCCNCCCF)cc1[C@@H]1c2[nH]c3ccccc3c2C[C@@H](C)N1CC1(F)CC1", "note": "[Example 52, 3-fluoro-N-(2-(3-((1R,3R)-2-((1-fluorocyclopropyl)methyl)-3-methyl-2,3,4,9-tetrahydro-1H-pyrido[3,4-b]indol-1-yl)-4-methoxyphenoxy)ethyl)propan-1-amine]", "values": [
      {"measurement": "IC50", "setting": "[1]", "value": 0.34, "unit": "nM"},
      {"measurement": "IC50", "setting": "[2]", "value": 0.58, "unit": "nM"}
    ]},
    {"smiles": "C[C@@H]1Cc2c([nH]c3ccc(F)cc23)[C@@H](c2c(F)ccc(OCCNCCCF)c2F)N1C[C@H](C)C(=O)O", "note": "[Example 59, (S)-3-((1R,3R)-1-(2,6-difluoro-3-(2-((3-fluoropropyl)amino)ethoxy)phenyl)-6-fluoro-3-methyl-1,3,4,9-tetrahydro-2H-pyrido[3,4-b]indol-2-yl)-2-methylpropanoic acid]", "values": [
      {"measurement": "IC50", "setting": "[1]", "value": 3.1, "unit": "nM"},
      {"measurement": "IC50", "setting": "[2]", "value": 2.3, "unit": "nM"}
    ]},
    {"smiles": "Cc1c(OCCNCCCF)ccc(F)c1[C@@H]1c2[nH]c3ccccc3c2C[C@@H](C)N1CC(C)(C)C(=O)O", "note": "[Example 119, 3-((1R,3R)-1-(6-fluoro-3-(2-((3-fluoropropyl)amino)ethoxy)-2-methylphenyl)-3-methyl-1,3,4,9-tetrahydro-2H-pyrido[3,4-b]indol-2-yl)-2,2-dimethyl-propanoic acid]", "values": [
      {"measurement": "IC50", "setting": "[1]", "value": 1, "unit": "nM"},
      {"measurement": "IC50", "setting": "[2]", "value": 6.9, "unit": "nM"}
    ]},
    {"smiles": "Cc1c(OCCNCCCF)ccc(F)c1[C@@H]1c2[nH]c3ccccc3c2C[C@@H](C)N1CC1(C(=O)O)CCC1", "note": "[Example 120]", "values": [
      {"measurement": "IC50", "setting": "[1]", "value": 2.5, "unit": "nM"},
      {"measurement": "IC50", "setting": "[2]", "value": 11, "unit": "nM"}
    ]},
    {"smiles": "CC[C@@H]1Cc2c([nH]c3ccccc23)[C@@H](c2c(F)ccc(OCCNCCCF)c2C)N1C[C@H](C)C(=O)O", "note": "[Example 122, (S)-3-((1R,3R)-3-ethyl-1-(6-fluoro-3-(2-((3-fluoropropyl)amino)ethoxy)-2-methylphenyl)-1,3,4,9-tetrahydro-2H-pyrido[3,4-b]indol-2-yl)-2-methylpropanoic acid]", "values": [
      {"measurement": "IC50", "setting": "[1]", "value": 0.39, "unit": "nM"},
      {"measurement": "IC50", "setting": "[2]", "value": 4.9, "unit": "nM"}
    ]},
    {"smiles": "C[C@@H]1Cc2c([nH]c3ccccc23)[C@@H](c2c(F)ccc(OCCNCCCF)c2C(F)F)N1C[C@H](C)C(=O)O", "note": "[Example 125, (S)-3-((1R,3R)-1-(2-(difluoromethyl)-6-fluoro-3-(2-((3-fluoropropyl)amino)ethoxy)phenyl)-3-methyl-1,3,4,9-tetrahydro-2H-pyrido[3,4-b]indol-2-yl)-2-methylpropanoic acid]", "values": [
      {"measurement": "IC50", "setting": "[1]", "value": 0.62, "unit": "nM"},
      {"measurement": "IC50", "setting": "[2]", "value": 1.3, "unit": "nM"}
    ]},
    {"smiles": "C[C@@H]1Cc2c([nH]c3ccccc23)[C@@H](c2c(F)cnc(OCCNCCCF)c2Cl)N1C[C@H](C)C(=O)O", "note": "[Example 133, (S)-3-((1R,3R)-1-(3-chloro-5-fluoro-2-(2-((3-fluoropropyl)amino)ethoxy)pyridin-4-yl)-3-methyl-1,3,4,9-tetrahydro-2H-pyrido[3,4-b]indol-2-yl)-2-methylpropanoic acid]", "values": [
      {"measurement": "IC50", "setting": "[1]", "value": 1.5, "unit": "nM"},
      {"measurement": "IC50", "setting": "[2]", "value": 1.5, "unit": "nM"}
    ]},
    {"smiles": "C[C@@H](CN1[C@H](c2c(F)ccc(OCCNCCCF)c2Cl)c2[nH]c3ccccc3c2C[C@H]1C(F)F)C(=O)O", "note": "[Example 138, (S)-3-((1R,3S)-1-(2-chloro-6-fluoro-3-(2-((3-fluoropropyl)amino)ethoxy)phenyl)-3-(difluoromethyl)-1,3,4,9-tetrahydro-2H-pyrido[3,4-b]indol-2-yl)-2-methylpropanoic acid]", "values": [
      {"measurement": "IC50", "setting": "[1]", "value": 1.6, "unit": "nM"},
      {"measurement": "IC50", "setting": "[2]", "value": 1.6, "unit": "nM"}
    ]},
    {"smiles": "C[C@@H](CN1[C@H](c2c(F)cnc(OCCNCCCF)c2Cl)c2[nH]c3ccccc3c2C[C@H]1C(F)F)C(=O)O", "note": "[Example 139, (S)-3-((1R,3S)-1-(3-chloro-5-fluoro-2-(2-((3-fluoropropyl)amino)ethoxy)pyridin-4-yl)-3-(difluoromethyl)-1,3,4,9-tetrahydro-2H-pyrido[3,4-b]indol-2-yl)-2-methylpropanoic acid]", "values": [
      {"measurement": "IC50", "setting": "[1]", "value": 0.9, "unit": "nM"},
      {"measurement": "IC50", "setting": "[2]", "value": 1.5, "unit": "nM"}
    ]},
    {"smiles": "C[C@@H]1Cc2c([nH]c3ccccc23)[C@@H](c2c(F)ccc(OCCN(C)CCCF)c2F)N1C[C@H](C)C(=O)O", "note": "[Example 144, (S)-3-((1R,3R)-1-(2,6-difluoro-3-(2-((3-fluoropropyl)(methyl)amino)ethoxy)phenyl)-3-methyl-1,3,4,9-tetrahydro-2H-pyrido[3,4-b]indol-2-yl)-2-methylpropanoic acid]", "values": [
      {"measurement": "IC50", "setting": "[1]", "value": 7.9, "unit": "nM"},
      {"measurement": "% downregulation (in brackets)", "setting": "[1]; maximum downregulation", "value": 88, "unit": "%"},
      {"measurement": "IC50", "setting": "[2]", "value": 5.6, "unit": "nM"}
    ]}
  ]
}
